One assay relates to P. falciparum. The assay can be described thus: In vitro antimalarial activity / SAR data, clone not stated. It is filed as cell-based. From the text:
(§1) The analogs have been segregated arbitrarily here into those compounds in which the tetracyclic skeleton is intact (Table 2) and various ring-cleaved analogs (Table 3). The activities of the conventional malaria therapeutics chloroquine, mefloquine, and pyrimethamine is included for comparison.

For assay [1] the following is noted: Brossi et al.; cited from earlier work.
The subject of a further assay is P. falciparum D-6 clone. Description: In vitro antimalarial activity, P. falciparum D-6 clone. It is filed as cell-based. To be noted: D-6 clone; for IC50: Plasmodium falciparum.
Text: as §1

The subject of another assay is P. falciparum W-2 clone. Description: In vitro antimalarial activity, P. falciparum W-2 clone. The class given is cell-based. Conditions: W-2 clone; for IC50: Plasmodium falciparum.
Text: as §1

Where [2] appears, read: Table 3, tricyclic analogs, read-out: In vitro IC50 D-6 clone.
Where [3] appears, read: Table 3, tricyclic analogs, read-out: In vitro IC50 W-2 clone.
The mark [4] stands for this setting: Table 2, drug-resistant strains of P. falciparum, read-out: IC50 D-6 clone.
The mark [5] stands for this setting: Table 2, drawing 57 (artemisinin) = 100.
The mark [6] stands for this setting: Table 2, drug-resistant strains of P. falciparum, read-out: IC50 W-2 clone.

Converted amounts (≈) assume the structure as drawn. Like-named read-outs stand apart in the source and are kept apart here.

What is called IC50 is the concentration at which inhibition is half-maximal.

Consider `CCC1(CC)OO[C@]23CCCC[C@H]2[C@@H](C)C(=O)O[C@@H]3O1` (relative stereo) [compound 52], for which the “activity change by additional alkyl groups in the vicinity of the peroxy group” value in the assay with P. falciparum (24 versus 52) is given as “reduced activity substantially”.

For `CCO[C@H]1O[C@@H]2O[C@@]3(C)CC[C@H]4[C@H](C)CC[C@@H]([C@H]1C)[C@@]24OO3` [arteether], the “potency relative to artemisinin (12)” value in assay [1] is reported as “higher potency”.

In the case of `C[C@H]1C(=O)O[C@@H]2OC(C)(C)OO[C@@]23CCCC[C@@H]13` (relative stereo) [compound 4582], the “activity relative to 12” value in the assay with P. falciparum (of the activity of 12 (artemisinin), clone not stated) is “about 20%”. The IC50 in the assay with P. falciparum D-6 clone (setting [2]) stood at 0.0222 µg/mL (≈ 0.0867 µM); with P. falciparum W-2 clone (setting [3]), 0.0381 µg/mL (≈ 0.149 µM). Further, in the assay with P. falciparum D-6 clone (Table 3, tricyclic analogs), the “Relative potency (D-6 clone)” value is reported as 20. The “Relative potency (W-2 clone)” value with P. falciparum W-2 clone (Table 3, tricyclic analogs) is given as 6.

For `CCC1(CC)OO[C@]23CCCC[C@H]2[C@@H](C)C(=O)O[C@@H]3O1` (relative stereo) [compound 4583], the IC50 in the assay with P. falciparum D-6 clone (setting [2]) amounted to 0.0297 µg/mL (≈ 0.105 µM); with P. falciparum W-2 clone (setting [3]), 0.0742 µg/mL (≈ 0.261 µM). Further, the “Relative potency (D-6 clone)” value with P. falciparum D-6 clone (Table 3, tricyclic analogs) is on record as 15. Besides, in the assay with P. falciparum W-2 clone (Table 3, tricyclic analogs), the “Relative potency (W-2 clone)” value is recorded as 3.

On to “(-)-4ab,7a,7aa,10β-Hexahydro-3,3,7β,10a-tetramethyl-4aH,6H-trioxino[6.5-j][2]-benzopyran-6-one [compound 4591]”, for which, in the assay with P. falciparum D-6 clone (Table 3, tricyclic analogs), the “In vitro IC50 D-6 clone” value amounted to 0.00965 µg/mL and the “Relative potency (D-6 clone)” value is recorded as 8. In the assay on P. falciparum W-2 clone (Table 3, tricyclic analogs), the “In vitro IC50 W-2 clone” value stood at 0.00971 µg/mL and the “Relative potency (W-2 clone)” value is 9.

For `C[C@@H]1CC[C@H]2[C@@H](CC(=O)O)C(=O)O[C@@H]3O[C@@]4(C)CC[C@@H]1[C@]32OO4` [compound 4595], the figures for the IC50 in the assay with P. falciparum D-6 clone (setting [4]) and in the assay with P. falciparum W-2 clone (setting [6]) were 0.83 µg/mL (≈ 2.54 µM) and 0.151 µg/mL (≈ 0.463 µM), respectively. For the same molecule, the “Relative potency (D-6 clone)” value with P. falciparum D-6 clone (setting [5]) is listed as 0.15. Moreover, the “Relative potency (W-2 clone)” value in the assay with P. falciparum W-2 clone (setting [5]) worked out at 0.3.

In the case of `CCCCCCCCCCCCCC[C@H]1C(=O)O[C@@H]2O[C@@]3(C)CC[C@H]4[C@H](C)CC[C@@H]1[C@@]24OO3` [compound 2818], the IC50 with P. falciparum D-6 clone (setting [4]) is 0.0813 µg/mL (≈ 0.175 µM); in the assay with P. falciparum W-2 clone (setting [6]), 0.0639 µg/mL (≈ 0.138 µM). The “Relative potency (D-6 clone)” value in the assay on P. falciparum D-6 clone (setting [5]) is “.0017”. Also, the “Relative potency (W-2 clone)” value in the assay on P. falciparum W-2 clone (setting [5]) was “.0017”.
